Test results: patent US20220259165A1, “S-OXIDES OF 2,3-DIARYL-2,3-DIHYDRO-4H-1,3-THIAZIN-4-ONES AND 2,3-DIARYL-1,3-THIAZEPAN-4-ONES AND METHODS FOR MAKING” (The Penn State Research Foundation, priority 2019, published 2022)

Question: For `O=C1CC2(CC2)CS(=O)(=O)C(c2ccccc2)N1c1ccccc1` (centres unmarked) [Example 2e, 6,7-diphenyl-5?^6-thia-7-azaspiro[2.6]nonane-5,5,8-trione], which melting point is on record?
Answer: 186.6 to 187.7 °C (dec.)

Question: Which melting point does the source give for `O=C1c2ccccc2S(=O)(=O)C(c2ccccc2)N1c1ccccc1` (centres unmarked) [Example 2c, 2,3-diphenyl-2,3-dihydro-4H-1,3-benzothiazin-4-one 1,1-dioxide] here?
Answer: 163 to 165 °C

Question: With `O=C1CCS(=O)(=O)C(c2ccccc2)N1c1ccccc1` (centres unmarked) [Example 2a, 2,3-diphenyl-2,3,5,6-tetrahydro-4H-1,3-thiazin-4-one 1,1-dioxide] as the compound, how does the melting point read?
Answer: 145 to 148 °C

Question: With `O=C1CC2(CC2)C[S+]([O-])C(c2ccccc2)N1c1ccccc1` (centres unmarked) [Example 1e, 6,7-diphenyl-5λ^4-thia-7-azaspiro[2.6]nonane-5,8-dione] as the compound, how does the melting point read?
Answer: 193 to 194 °C

Question: With `CC(=O)N[C@H]1CS(=O)(=O)[C@@H](c2ccccc2)N(c2ccccc2)C1=O` [Example 2b, N-[(2S,5R)-1,1,4-trioxo-2,3-diphenyl-1λ^6,3-thiazinan-5-yl]acetamide] as the compound, how does the melting point read?
Answer: 170 to 194 °C (dec.)

Question: With `O=C1c2cccnc2[S+]([O-])C(c2ccccc2)N1c1ccccc1` (centres unmarked) [Example 1d, 2,3-diphenyl-2,3-dihydro-4H-pyrido[3,2-e]-[1,3]thiazin-4-one 1-oxide] as the compound, how does the melting point read?
Answer: 177 to 179 °C

Question: With `CC(=O)N[C@H]1C[S@+]([O-])[C@@H](c2ccccc2)N(c2ccccc2)C1=O` [Example 1b, N-[(1S,2S,5R)-1,4-dioxo-2,3-diphenyl-1λ^4,3-thiazinan-5-yl]acetamide] as the compound, how does the melting point read?
Answer: 176 to 179 °C

Question: For `O=C1c2ccccc2[S+]([O-])C(c2ccccc2)N1c1ccccc1` (centres unmarked) [Example 1c, 2,3-diphenyl-2,3-dihydro-4H-1,3-benzothiazin-4-one 1-oxide], which melting point is on record?
Answer: 208 to 209 °C
